Test results taken from patent US20250313535A1, “ALPHA 4 BETA 7 INTEGRIN MODULATORS AND USES THEREOF” (DICE MOLECULES SV, INC., priority 2022, published 2025).
Where two headings read alike, the source gives them in different places.

Key:
α4β7 integrin = α4β7 integrin (Homo sapiens (Human), UniProt P13612+P26010); test: Integrin Adhesion Assay: Protocol 4 (MAdCAM-coated plate, RPMI-8866 cells with stable LOF mutation of the ITGB1 gene); format: cell-based
How it was run: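 RPMI-8866 cells with CRISPR/Cas9 knockout of ITGB1 (2×10^6/mL) were added to MAdCAM-coated wells with compound (1% DMSO) in HEPES/NaCl buffer with 1 mM MnCl2, 0.1 mM CaCl2 and 1% BSA, then incubated 1 h at 37 °C. After four washes, adherent cells were quantified by CellTiter-Glo luminescence. Percent inhibition versus DMSO and control compound was fitted to 4-parameter curves.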

α4β1 integrin = α4β1 integrin (Homo sapiens (Human), UniProt P05556+P13612); test: Integrin Adhesion Assay: Protocol 5 (VCAM-coated plate, RPMI-8866 cells with stable LOF mutation of the ITGB7 gene); format: cell-based
α4β1 integrin, sequence (P13612 34-1032): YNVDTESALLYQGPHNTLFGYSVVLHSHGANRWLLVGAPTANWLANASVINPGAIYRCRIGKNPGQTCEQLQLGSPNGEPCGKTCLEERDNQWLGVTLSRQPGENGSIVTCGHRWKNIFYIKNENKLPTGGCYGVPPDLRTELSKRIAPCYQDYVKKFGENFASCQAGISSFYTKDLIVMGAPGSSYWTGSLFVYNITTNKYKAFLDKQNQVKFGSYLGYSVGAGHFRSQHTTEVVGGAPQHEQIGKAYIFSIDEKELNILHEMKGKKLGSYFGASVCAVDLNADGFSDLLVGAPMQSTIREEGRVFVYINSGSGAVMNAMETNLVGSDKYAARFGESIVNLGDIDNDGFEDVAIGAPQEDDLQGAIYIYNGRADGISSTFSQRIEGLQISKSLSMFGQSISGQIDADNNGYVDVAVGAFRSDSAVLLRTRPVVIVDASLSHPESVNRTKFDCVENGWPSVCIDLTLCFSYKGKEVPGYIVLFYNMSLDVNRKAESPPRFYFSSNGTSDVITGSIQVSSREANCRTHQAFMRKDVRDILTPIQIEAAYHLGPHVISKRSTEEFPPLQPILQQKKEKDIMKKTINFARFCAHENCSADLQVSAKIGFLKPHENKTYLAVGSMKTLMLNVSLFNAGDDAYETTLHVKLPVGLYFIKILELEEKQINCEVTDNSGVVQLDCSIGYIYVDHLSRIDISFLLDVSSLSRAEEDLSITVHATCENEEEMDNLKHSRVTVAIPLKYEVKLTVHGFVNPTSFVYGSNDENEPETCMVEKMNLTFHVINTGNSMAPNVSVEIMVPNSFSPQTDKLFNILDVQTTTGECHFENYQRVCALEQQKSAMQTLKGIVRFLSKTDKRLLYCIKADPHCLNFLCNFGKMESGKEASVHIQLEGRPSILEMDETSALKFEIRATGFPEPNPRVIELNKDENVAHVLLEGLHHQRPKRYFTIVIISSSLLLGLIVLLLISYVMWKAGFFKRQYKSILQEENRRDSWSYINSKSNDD
α4β1 integrin, sequence (P05556 21-798): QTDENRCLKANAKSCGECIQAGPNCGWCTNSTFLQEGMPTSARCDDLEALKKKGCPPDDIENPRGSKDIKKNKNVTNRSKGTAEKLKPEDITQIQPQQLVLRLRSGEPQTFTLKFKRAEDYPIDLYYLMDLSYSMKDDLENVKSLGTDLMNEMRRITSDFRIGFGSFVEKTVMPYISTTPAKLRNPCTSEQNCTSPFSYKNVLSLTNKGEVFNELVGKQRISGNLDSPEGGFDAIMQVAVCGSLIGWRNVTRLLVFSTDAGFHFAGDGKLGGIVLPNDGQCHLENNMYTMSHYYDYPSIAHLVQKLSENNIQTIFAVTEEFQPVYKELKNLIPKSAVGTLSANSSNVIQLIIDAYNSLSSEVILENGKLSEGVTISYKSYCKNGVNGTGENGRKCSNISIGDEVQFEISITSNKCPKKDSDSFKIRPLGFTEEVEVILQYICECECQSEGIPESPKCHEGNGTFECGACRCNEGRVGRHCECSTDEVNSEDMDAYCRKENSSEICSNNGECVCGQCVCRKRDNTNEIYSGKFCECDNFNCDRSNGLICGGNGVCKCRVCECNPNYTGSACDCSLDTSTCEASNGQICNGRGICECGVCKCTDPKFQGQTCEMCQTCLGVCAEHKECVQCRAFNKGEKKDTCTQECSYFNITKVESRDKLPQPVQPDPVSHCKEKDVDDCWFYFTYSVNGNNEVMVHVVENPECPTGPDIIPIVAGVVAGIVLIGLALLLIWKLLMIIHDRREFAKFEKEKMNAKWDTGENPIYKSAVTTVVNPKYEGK
How it was run: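 RPMI-8866 B cells with CRISPR/Cas9 ITGB7 knockout (clonal, verified by flow cytometry) adhered to VCAM-coated wells for 1 h at 37° C in HEPES/NaCl buffer with 1 mM MnCl2, 0.1 mM CaCl2, 1% BSA, 1% DMSO. Bound cells quantified by CellTiter-Glo luminescence after washing; % inhibition versus DMSO and control, 4-parameter fit.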

[1] = Protocol 4, RPMI-8866 cells with LOF mutation of ITGB1, MAdCAM, read-out: Mean IC50 α4β7 KO
[2] = Protocol 5, RPMI-8866 cells with LOF mutation of ITGB7, VCAM, read-out: Mean IC50 α4β1 KO
[3] = RPMI-8866 cells with stable LOF mutation of the ITGB1 gene, read-out: Mean IC50 α4β7 KO^a
[4] = RPMI-8866 cells with stable LOF mutation of the ITGB7 gene, read-out: Mean IC50 α4β1 KO^b

α4β7 integrin, sequence (P13612 34-1032): as the sequence (P13612 34-1032) above
α4β7 integrin, sequence (P26010 20-798): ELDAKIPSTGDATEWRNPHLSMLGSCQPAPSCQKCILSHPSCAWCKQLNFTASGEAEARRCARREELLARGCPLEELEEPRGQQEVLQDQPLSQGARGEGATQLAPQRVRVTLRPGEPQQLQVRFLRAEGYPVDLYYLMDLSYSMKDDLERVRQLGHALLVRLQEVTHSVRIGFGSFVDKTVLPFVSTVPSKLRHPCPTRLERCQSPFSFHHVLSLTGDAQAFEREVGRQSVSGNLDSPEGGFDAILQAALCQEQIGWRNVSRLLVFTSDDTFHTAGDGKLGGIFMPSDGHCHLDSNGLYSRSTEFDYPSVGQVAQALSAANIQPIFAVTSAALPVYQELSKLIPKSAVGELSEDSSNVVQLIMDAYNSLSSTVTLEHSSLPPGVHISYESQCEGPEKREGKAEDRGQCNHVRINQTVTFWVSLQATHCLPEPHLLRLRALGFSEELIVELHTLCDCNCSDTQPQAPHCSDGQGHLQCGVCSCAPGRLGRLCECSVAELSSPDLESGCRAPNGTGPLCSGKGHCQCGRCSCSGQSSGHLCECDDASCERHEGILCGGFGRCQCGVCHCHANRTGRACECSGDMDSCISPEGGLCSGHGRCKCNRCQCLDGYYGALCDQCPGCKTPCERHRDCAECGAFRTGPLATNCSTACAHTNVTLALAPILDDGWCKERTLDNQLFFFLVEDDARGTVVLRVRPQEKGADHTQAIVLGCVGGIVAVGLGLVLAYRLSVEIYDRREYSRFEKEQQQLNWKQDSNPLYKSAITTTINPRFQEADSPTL

Row | SMILES | IC50 (α4β7 integrin; [1]) [nM] | IC50 (α4β1 integrin; [2]) [nM] | IC50 (α4β7 integrin; [3]) [nM] | IC50 (α4β1 integrin; [4]) [nM]
1 | Cn1c(=O)c(-c2cccc3c(C[C@H](NC(=O)C4(C(F)(F)F)CCN(CC(F)(F)F)CC4)C(=O)O)cccc23)c(C(F)(F)F)c2cc(CN3CCC(F)CC3)ccc21 [Compound 833] | < 10 | 100 to 1000 | – | –
2 | COC(=O)[C@H](Cc1cccc2c(-c3nccc4cc(CCN(C)C)ccc34)cccc12)NC(=O)OC(C)(C)C [Compound 471] | – | – | < 10 | 100 to 1000
3 | Cn1c(=O)c(-c2cccc3c(C[C@H](NC(=O)C4(C(F)(F)F)CCN(C5(C(F)(F)F)CC5)CC4)C(=O)O)cccc23)c(C(F)(F)F)c2ccccc21 [Compound 486] | – | – | > 1000 | > 1000
4 | CC(C)c1cccc(F)c1C(=O)N[C@@H](Cc1cccc2c(-c3c(C(F)(F)F)c4cc(CN5CCCCC5)ccc4n(C)c3=O)cccc12)C(=O)O [Compound 1029] | < 10 | 10 to 100 | – | –
5 | COc1ccc(CCN(C)C)c(OC)c1-c1cccc2c(C[C@H](NC(=O)C3(C(F)(F)F)CCN(CC(F)(F)F)CC3)C(=O)O)cccc12 [Compound 468] | – | – | < 10 | 100 to 1000
6 | N#CC1(C(=O)N[C@@H](Cc2cccc3c(-c4ncc(CN5CCCCC5)c5ccccc45)cccc23)C(=O)O)CCN(CC(F)(F)F)CC1 [Compound 677] | – | – | 10 to 100 | > 1000
7 | CC1OCC1N1CCC(C(=O)N[C@@H](Cc2cccc3c(-c4c(C(F)(F)F)c5ccccc5n(C)c4=O)cccc23)C(=O)O)(C(F)(F)F)CC1 (stereo partly shown) [Compound 510] | – | – | < 10 | 100 to 1000
8 | O=C(O)[C@H](Cc1cccc2c(-c3ncc(C(=O)N4CCN(C5CC5)CC4)c4ccccc34)cccc12)NC(=O)C1(C(F)(F)F)CCN(CC(F)F)CC1 [Compound 763] | 10 to 100 | > 1000 | – | –
9 | O=C(O)[C@H](Cc1cccc2c(-c3nc(CN4CCCCC4)cc4ccccc34)cccc12)NC(=O)C1(C(F)(F)F)CCN(CC(F)(F)F)CC1 [Compound 988] | 10 to 100 | > 1000 | – | –
10 | Cc1cc(CN2CCCCC2)cnc1-c1cccc2c(C[C@H](NC(=O)C3(C(F)(F)F)CCN(CC(F)F)CC3)C(=O)O)cccc12 [Compound 721] | 10 to 100 | > 1000 | – | –
11 | O=C(O)[C@H](Cc1cccc2c(-c3ncc(CN4CCC(C(F)(F)F)CC4)c4ccccc34)cccc12)NC(=O)C1(C(F)(F)F)CCN(CC(F)F)CC1 [Compound 879] | 10 to 100 | > 1000 | – | –
12 | O=C(O)[C@H](Cc1cccc2c(-c3ncc(CN4CCN(C5CC5)CC4)c4ccccc34)cccc12)NC(=O)C1(C(F)(F)F)CCN(CC(F)(F)F)CC1 [Compound 868] | < 10 | > 1000 | – | –
13 | Cc1cc(C2CCN(C)CC2)cnc1-c1cccc2c(C[C@H](NC(=O)C3(C(F)(F)F)CCN(CC(F)(F)F)CC3)C(=O)O)cccc12 [Compound 759] | < 10 | > 1000 | – | –
14 | O=C(O)[C@H](Cc1cccc2c(-c3ncc(CN4CC(F)C4)c4ccccc34)cccc12)NC(=O)C1(C(F)(F)F)CCN(CC(F)(F)F)CC1 [Compound 865] | 10 to 100 | > 1000 | – | –
15 | COc1cccc(OCCN2CCCCC2)c1-c1cccc2c(C[C@H](NC(=O)C3(C(F)(F)F)CCN(CC(F)(F)F)CC3)C(=O)O)cccc12 [Compound 729] | < 10 | 100 to 1000 | – | –
16 | O=C(O)[C@H](Cc1cccc2c(-c3ncc(CN4CCC(F)CC4)c4ccccc34)cccc12)NC(=O)C1(C(F)(F)F)CCN(CC(F)F)CC1 [Compound 905] | < 10 | > 1000 | – | –
17 | CN(C)Cc1ccc2c(C(F)(F)F)c(-c3cccc4c(C[C@H](NC(=O)C5(C(F)(F)F)CCN(CC(F)(F)F)CC5)C(=O)O)cccc34)c(=O)n(C)c2c1 [Compound 476] | – | – | < 10 | 100 to 1000
18 | Cn1c(=O)c(-c2cccc3c(C[C@H](NC(=O)c4c(F)cccc4F)C(=O)O)cccc23)c(C(F)(F)F)c2cc(CCN3CCC3)ccc21 [Compound 709] | < 10 | > 1000 | – | –
19 | COc1ccc(CN2CC3CCC(C2)O3)c(OC)c1-c1cccc2c(C[C@H](NC(=O)C3(C(F)(F)F)CCN(CC(F)(F)F)CC3)C(=O)O)cccc12 [Compound 845] | 10 to 100 | > 1000 | – | –
20 | COc1ccc(CN2CCCC(F)(F)CC2)c(OC)c1-c1cccc2c(C[C@H](NC(=O)c3c(C)cccc3F)C(=O)O)cccc12 [Compound 653] | – | – | < 10 | 100 to 1000
21 | COc1ccc(CN2CCC(C)(C)CC2)c(C(F)(F)F)c1-c1cccc2c(C[C@H](NC(=O)c3c(C)cccc3F)C(=O)O)cccc12 [Compound 658] | – | – | < 10 | 100 to 1000
22 | CN(C)Cc1ccc2c(-c3cccc4c(C[C@H](NC(=O)C5(C(F)(F)F)CCN(CC(F)(F)F)CC5)C(=O)O)cccc34)nccc2c1 [Compound 584] | – | – | 10 to 100 | > 1000

Row | SMILES | IC50 (α4β7 integrin; [1]) [nM] | IC50 (α4β1 integrin; [2]) [nM] | IC50 (α4β7 integrin; [3]) [nM] | IC50 (α4β1 integrin; [4]) [nM]
23 | COc1ccc(CCN2CCC(C)(C)CC2)c(OC)c1-c1cccc2c(C[C@H](NC(=O)C3(C(F)(F)F)CCN(CC(F)(F)F)CC3)C(=O)O)cccc12 [Compound 967] | < 10 | 100 to 1000 | – | –
24 | COc1cccc(F)c1C(=O)N[C@@H](Cc1cccc2c(-c3c(OC)ccc(CN4CCCCC4)c3OC)cccc12)C(=O)O [Compound 647] | – | – | < 10 | 100 to 1000
25 | COc1ccc(CN2CC(C(F)(F)F)C2)c(OC)c1-c1cccc2c(C[C@H](NC(=O)C3(C(F)(F)F)CCN(CC(F)(F)F)CC3)C(=O)O)cccc12 [Compound 814] | 10 to 100 | > 1000 | – | –
26 | COC(=O)[C@H](Cc1cccc2c(-c3c(OC)ccc(CN4C(C)CCC4C)c3OC)cccc12)NC(=O)c1c(C)cccc1F (stereo partly shown) [Compound 552] | – | – | < 10 | 100 to 1000
27 | CN(C)Cc1cccc2c(-c3cccc4c(C[C@H](NC(=O)C5(C(F)(F)F)CCN(CC(F)(F)F)CC5)C(=O)O)cccc34)nccc12 [Compound 421] | – | – | < 10 | > 1000
28 | Cc1cccc(F)c1C(=O)N[C@@H](Cc1cccc2c(-c3c(C(F)(F)F)c4cc(CCN(C)C)ccc4n(C)c3=O)cccc12)C(=O)O [Compound 706] | < 10 | 100 to 1000 | – | –
29 | O=C(O)[C@H](Cc1cccc2c(-c3ncc(CN4CCC[C@H](F)C4)c4ccccc34)cccc12)NC(=O)C1(C(F)(F)F)CCN(CC(F)F)CC1 [Compound 859] | < 10 | > 1000 | – | –
30 | O=C(O)[C@H](Cc1cccc2c(-c3cccc4cc(CN5CCCCC5)ncc34)cccc12)NC(=O)C1(C(F)(F)F)CCN(CC(F)(F)F)CC1 [Compound 991] | 100 to 1000 | > 1000 | – | –
31 | Cn1c(=O)c(-c2cccc3c(C[C@H](NC(=O)C4(C)CCCN(C5COC5)CC4)C(=O)O)cccc23)c(C(F)(F)F)c2ccccc21 (stereo partly shown) [Compound 1050] | 10 to 100 | > 1000 | – | –
32 | CC[C@@H]1CCCCN1Cc1cnc(-c2cccc3c(C[C@H](NC(=O)C4(C(F)(F)F)CCN(CC(F)(F)F)CC4)C(=O)O)cccc23)c2ccccc12 [Compound 931] | < 10 | 100 to 1000 | – | –
33 | COc1ccc(CN2CCCC(C)(C)C2)c(OC)c1-c1cccc2c(C[C@H](NC(=O)C3(C(F)(F)F)CCN(CC(F)(F)F)CC3)C(=O)O)cccc12 [Compound 791] | < 10 | > 1000 | – | –
34 | COc1cccc(CCN2CCCCC2)c1-c1cccc2c(C[C@H](NC(=O)C3(C(F)(F)F)CCN(CC(F)(F)F)CC3)C(=O)O)cccc12 [Compound 956] | < 10 | 100 to 1000 | – | –
35 | COc1cc(CN2CCC(C)(C)CC2)cnc1-c1cccc2c(C[C@H](NC(=O)C3(C(F)(F)F)CCN(CC(F)F)CC3)C(=O)O)cccc12 [Compound 924] | < 10 | > 1000 | – | –
36 | COC(=O)[C@H](Cc1cccc2c(-c3c(OC)ccc(CN4CCC(C)C(F)(F)CC4)c3OC)cccc12)NC(=O)C1(C(F)(F)F)CCN(CC(F)(F)F)CC1 (stereo partly shown) [Compound 779] | < 10 | 100 to 1000 | – | –
37 | COc1cccc(CCN2CCC(F)CC2)c1-c1cccc2c(C[C@H](NC(=O)C3(C(F)(F)F)CCN(CC(F)(F)F)CC3)C(=O)O)cccc12 [Compound 968] | < 10 | 100 to 1000 | – | –
38 | Cn1c(=O)c(-c2cccc3c(C[C@H](NC(=O)C4(C(F)(F)F)CCN(C5COC5)CC4)C(=O)O)cccc23)c(C(F)(F)F)c2ccccc21 [Compound 432] | – | – | < 10 | 10 to 100
39 | CC1(C(=O)N[C@@H](Cc2cccc3c(-c4nccc5ccc(CCCN6CCCCC6)cc45)cccc23)C(=O)O)CC2CCC(C1)N2CC(F)(F)F (stereo partly shown) [Compound 548] | – | – | < 10 | > 1000
40 | COc1cccc(CCCN2CCC(F)(F)CC2)c1-c1cccc2c(C[C@H](NC(=O)C3(C(F)(F)F)CCN(CC(F)(F)F)CC3)C(=O)O)cccc12 [Compound 742] | 10 to 100 | > 1000 | – | –
41 | O=C(O)[C@H](Cc1cccc2c(-c3ncc(CCN4CCCCC4)c4ccccc34)cccc12)NC(=O)C1(C(F)(F)F)CCN(CC(F)F)CC1 [Compound 955] | < 10 | 100 to 1000 | – | –
42 | Cn1c(=O)c(-c2cccc3c(C[C@H](NC(=O)C4(C(F)(F)F)CCNCC4)C(=O)O)cccc23)c(C(F)(F)F)c2ccccc21 [Compound 492] | – | – | 10 to 100 | > 1000
43 | Cn1c(C(F)(F)F)cc(C(F)(F)F)c(-c2cccc3c(C[C@H](NC(=O)C4(C(F)(F)F)CCN(C5COC5)CC4)C(=O)O)cccc23)c1=O [Compound 499] | – | – | < 10 | 100 to 1000
44 | COc1cc(CN2CCCCC2)cc(C(F)(F)F)c1-c1cccc2c(C[C@H](NC(=O)c3c(C)cccc3F)C(=O)O)cccc12 [Compound 1023] | < 10 | 100 to 1000 | – | –
